The source of these data is PMC8095314 (ChemistryOpen, 2021).

Where “and” joins values, the source holds several entries; their conditions need not be identical. Equal entries are not always repeated.

The target in one series is recombinant human CA II (Homo sapiens, UniProt P00918). As to conditions: read-out: Kd CA II (FTSA); observed, pH 7.0, 37 °C; cited from earlier work.
The target of series [1] is T1, recombinant human CA XII (Homo sapiens, UniProt O43570). As to conditions: read-out: Kd CA XII (FTSA); observed, pH 7.0, 37 °C; cited from earlier work.
T1 sequence (O43570 25-354): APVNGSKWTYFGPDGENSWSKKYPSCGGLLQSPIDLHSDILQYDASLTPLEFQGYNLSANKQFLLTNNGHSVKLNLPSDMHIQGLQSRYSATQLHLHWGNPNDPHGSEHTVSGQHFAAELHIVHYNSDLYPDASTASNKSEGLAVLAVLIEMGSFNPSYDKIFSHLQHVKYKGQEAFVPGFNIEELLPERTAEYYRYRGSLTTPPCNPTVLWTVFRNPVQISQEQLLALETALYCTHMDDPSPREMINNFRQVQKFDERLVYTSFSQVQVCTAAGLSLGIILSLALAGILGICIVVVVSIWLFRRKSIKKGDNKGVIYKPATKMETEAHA
The target of series [2] is T1, recombinant human CA XII. It is filed as binding. The conditions noted are these: from FTSA Kd.
A further series addresses chCA XII (Homo sapiens, UniProt P00918, A65S/F130A/I91T/L203N/N67K/V134S). As to the kind of experiment: Fluorescent thermal shift assay.
A further series has as its system His64. As to the kind of experiment: kinetics. As to conditions: cited from earlier work.

By Kd is commonly meant a measure of binding affinity in units of concentration. As for `NS(=O)(=O)c1ccc2ccccc2c1` [Compound 37, naphthalene‐2‐sulfonamide], the Kd on recombinant human CA II was 0.77 µM; at recombinant human CA XII [1] it was 6.3 µM; on chCA XII, 6.7 µM. Besides, at recombinant human CA XII [2], the “Kd ratio CA XII/CA II” value is 8.2.

For orientation: pKa means the negative logarithm of the acid dissociation constant. Take “Carbonic anhydrase XII (CA XII) (Homo sapiens)”: the pKa in the series with His64 is 8.0±0.2 and 7.5±0.1.
